# Source: US8685925B2, “Method and compositions for treating stroke with fever” (Nono Inc., priority 2006, dated 2014)
# Like-named read-outs stand apart in the source and are kept apart here. No end group written: not given here.
# Tests used:
# PSD-95 = PSD-95 (Homo sapiens, UniProt P78352); settings: Kornau, 1995; Aarts, 2002; cited from earlier work
# Sprague-Dawley rats [1] = type: in vivo, rat; settings: pial vessel occlusion study
# Protocol: (§1) The peptides were prepared daily from lyophilized powder by dissolving them in normal saline to the final desired concentration. They were administered intravenously via a slow (4-5 min) injection by individuals blinded to the treatment group.
# (§2) Experiments were performed in male adult Sprague-Dawley rats weighing 250-300 g (Charles River Laboratory, Canada). All procedures conformed to guidelines established by the Canadian Council on Animal Care and with the approval of the University Health Network animal care committee. All animals were housed in groups of 1-2 animals in cages with free access to food and water and in rooms having an ambient temperature of 20±1° C. and 12:12 hr light/dark cycle.
# Each animal was weighed and then anesthesia was induced. For the permanent pial vessel occlusion model, rats were anesthetized with ketamine (100 mg/kg), acepromazine (2 mg/kg), and xylazine (50 mg/kg), supplemented with one third the initial dose as required. For the two permanent middle cerebral artery occlusion (pMCAO) studies, anesthesia was induced with 3.5% halothane in a mixture of nitrous oxide and oxygen (Vol. 2:1) and maintained with 0.8% halothane in the mixture. […] Mean arterial blood pressure was measured with the use of an indwelling femoral arterial catheter connected to a pressure transducer and was recorded continuously. […]
# Sprague-Dawley rats [2] = type: in vivo, rat
# Protocol: as §1, §2
# (§3) Each animal was weighed and then anesthesia was induced. For the permanent pial vessel occlusion model, rats were anesthetized with ketamine (100 mg/kg), acepromazine (2 mg/kg), and xylazine (50 mg/kg), supplemented with one third the initial dose as required. For the two permanent middle cerebral artery occlusion (pMCAO) studies, anesthesia was induced with 3.5% halothane in a mixture of nitrous oxide and oxygen (Vol. 2:1) and maintained with 0.8% halothane in the mixture. Rats were endotracheally intubated and mechanically ventilated (60 strokes/min, tidal volume of […]). A rectal temperature probe was inserted. Polyethylene catheters (PE-50) were introduced into the left femoral artery and vein for blood pressure recording, blood sampling, and drug injection. Mean arterial blood pressure was measured with the use of an indwelling femoral arterial catheter connected to a pressure transducer and was recorded continuously. Serial measurements were made of arterial blood gases, pH, and blood glucose.
# The left middle cerebral artery was occluded by the intraluminal suture method described by Longa (1989). In brief, the left common carotid artery (CCA) was exposed through a midline neck incision and was dissected free from surrounding nerves and fascia, from its bifurcation to the base of the skull. The occipital artery branches of the external carotid artery (ECA) were then isolated, and these branches were dissected and coagulated. The ECA was dissected further distally and coagulated along with the terminal lingual and maxillary artery branches, which were then divided. The internal carotid artery (ICA) was isolated and carefully separated from the adjacent vagus nerve, and the pterygopalatine artery was ligated close to its origin. The tip of a 4-cm length of 3-0 monofilament nylon suture (Harvard Apparatus) was rounded by burning to achieve a tip diameter of 0.33-0.36 mm and tip length of 0.5-0.6 mm and coated with poly-L-lysine (Belayev et al., 1996). The suture was introduced through the CCA and advanced into the ICA and thence into the circle of Willis (about 18-20 mm from the carotid bifurcation), effectively occluding the middle cerebral artery. The silk suture around the CCA was tightened around the intraluminal nylon suture to secure it and permanently occlude the middle cerebral artery. Sham operated animals underwent the identical surgical procedure, including permanent ligation of the CCA, but without suture insertion to occlude the MCA. The pMCAO procedure was considered to be adequate if the animal's neurobehavioral score (below) exceeded 10 at 2 h after pMCAO. Animals were allowed to recover from anesthesia at room temperature.
# At 24 h after pMCAO the animals were deeply anaesthetized employing halothane inhalation and the brains were quickly removed, sliced into 8 standard coronal sections, and incubated for 30 min in 2% triphenyltetrazolium chloride (TTC; Sigma, St. Louis, USA) in saline at 37° C. […] Each section was digitally photographed, and the infarcts were then traced onto templates representing the 8 standardized coronal slices. The use of the templates corrects for any brain edema produced by the infarct, allowing for a more accurate determination of infarct volume. […]
# Sprague-Dawley rats [3] = assay: Core temperature after sham procedure with peptide injection; type: in vivo, rat; settings: single i.v. injection of 3 nMole/g
# Protocol: A day prior to undergoing ischemia, the animals were implanted with intraperitoneal transmitters (E-Mitter; Mini Mitter/Respironics, Oregon, USA) permitting core temperature (CT) and activity monitoring. Monitoring was performed continuously from 20 hours before, to 24 hours after, the pMCAO (Mini-Mitter VitalView telemetric monitoring software; Mini Mitter/Respironics, Oregon, USA). During the animal surgery the animals were away from the telemetric receivers, so CT was measured with a rectal probe and maintained at 36.5° C. to 37.5° C. using a heating lamp or homeothermic blanket. […] Temporalis muscle temperatures were measured with the same thermocouple probe inserted into the muscle through an 18 gauge needle. Cage temperatures were continuously recorded using an external temperature probe and software (Tektronix WaveStar software; Tektronix, Texas, USA) running on a digital oscilloscope and a separate computer. […]
# Previous experience has shown that the neuroprotective effects of some anti-ischemic drugs might have been, at least in part, related to drug-induced hypothermia (e.g., MK-801; Corbett, 1990). […] To determine whether PSD-95 inhibition affected core temperature (CT), it was measured in rats (n=6) implanted with telemetric intra-peritoneal temperature monitors. […]
# Sprague-Dawley rats [4] = assay: Physiological parameters in the pMCAO studies (body weight, MABP, blood gases, pH); type: in vivo, rat; settings: for pH: arterial blood; for pH / MABP / pCO2 / pO2: first line, time not given
# Protocol: as §3
# Sequence of PSD-95 (P78352 whole entry, species assumed): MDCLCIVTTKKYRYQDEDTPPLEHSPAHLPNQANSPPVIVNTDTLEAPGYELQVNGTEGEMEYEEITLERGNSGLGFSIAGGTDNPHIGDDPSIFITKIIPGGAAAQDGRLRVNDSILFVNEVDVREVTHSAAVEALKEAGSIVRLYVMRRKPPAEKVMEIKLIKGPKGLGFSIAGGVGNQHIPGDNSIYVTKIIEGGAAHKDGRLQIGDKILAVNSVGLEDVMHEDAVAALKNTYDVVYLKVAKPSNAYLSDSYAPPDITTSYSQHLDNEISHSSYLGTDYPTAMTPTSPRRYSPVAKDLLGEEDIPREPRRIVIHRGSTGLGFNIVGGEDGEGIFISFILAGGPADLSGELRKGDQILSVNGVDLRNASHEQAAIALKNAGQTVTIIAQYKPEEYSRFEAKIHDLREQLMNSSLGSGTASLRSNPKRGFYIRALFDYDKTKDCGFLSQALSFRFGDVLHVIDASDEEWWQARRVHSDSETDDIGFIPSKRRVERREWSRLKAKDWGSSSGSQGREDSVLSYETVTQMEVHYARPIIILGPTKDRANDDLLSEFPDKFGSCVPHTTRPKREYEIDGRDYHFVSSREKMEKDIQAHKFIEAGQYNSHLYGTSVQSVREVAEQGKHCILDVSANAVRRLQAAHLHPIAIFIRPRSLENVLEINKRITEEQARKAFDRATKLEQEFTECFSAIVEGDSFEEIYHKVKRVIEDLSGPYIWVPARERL
sequence,measurement,setting,value
"KLSSIEADA [NR2B(ADA), reference compound]",binding to PSD-95,PSD-95,incapable of binding PSD-95
YGRKKRRQRRRKLSSIESDV [Tat-NR2B9c(SDV)],Post-op Deaths,Sprague-Dawley rats [1]; 0.3 nMole/g,0
same,Post-op Deaths,Sprague-Dawley rats [1]; 3.0 nMole/g,0
same,Post-op Deaths,"Sprague-Dawley rats [2]; pMCAO study #1, 0.3 nMole/g",1/1
same,Post-op Deaths,"Sprague-Dawley rats [2]; pMCAO study #1, 3.0 nMole/g",1
same,Post-op Deaths,"Sprague-Dawley rats [2]; pMCAO study #2, 0.3 nMole/g",1/1
same,difference in core temperature versus sham (vehicle) animals,Sprague-Dawley rats [3]; 20 h before until 24 h after,no differences in CT at any time point
same,increase in core temperature after termination of anesthesia,"Sprague-Dawley rats [3]; no ischemia, n=6",~0.5 °C
YGRKKRRQRRRKLSSIETDV [Tat-NR2B9c(TDV)],Post-op Deaths,"Sprague-Dawley rats [2]; pMCAO study #1, 0.3 nMole/g",0
same,Post-op Deaths,"Sprague-Dawley rats [2]; pMCAO study #1, 3.0 nMole/g",0
same,Post-op Deaths,"Sprague-Dawley rats [2]; pMCAO study #2, 0.3 nMole/g",2
same,Post-op Deaths,"Sprague-Dawley rats [2]; pMCAO study #2, 3.0 nMole/g",3
same,MABP 10 min,"Sprague-Dawley rats [4]; 1st study, 0.3 nmol/g",121.44 ± 5.23 mmHg
same,pCO2 10 min,"Sprague-Dawley rats [4]; 1st study, 0.3 nmol/g",39.33 ± 0.73 mmHg
same,pH 10 min,"Sprague-Dawley rats [4]; 1st study, 0.3 nmol/g",7.44 ± 0.01
same,pO2 10 min,"Sprague-Dawley rats [4]; 1st study, 0.3 nmol/g",124.22 ± 6.34 mmHg
same,MABP 70 min,"Sprague-Dawley rats [4]; 1st study, 0.3 nmol/g",129.44 ± 6.54 mmHg
same,pCO2 70 min,"Sprague-Dawley rats [4]; 1st study, 0.3 nmol/g",38.67 ± 0.93 mmHg
same,pH 70 min,"Sprague-Dawley rats [4]; 1st study, 0.3 nmol/g",7.41 ± 0.01
same,pO2 70 min,"Sprague-Dawley rats [4]; 1st study, 0.3 nmol/g",137.67 ± 4.75 mmHg
same,pH,"Sprague-Dawley rats [4]; 1st study, 0.3 nmol/g",7.42 ± 0.02
same,MABP,"Sprague-Dawley rats [4]; 1st study, 0.3 nmol/g",126.00 ± 5.54 mmHg
same,pCO2,"Sprague-Dawley rats [4]; 1st study, 0.3 nmol/g",38.11 ± 0.81 mmHg
same,pO2,"Sprague-Dawley rats [4]; 1st study, 0.3 nmol/g",131.44 ± 9.11 mmHg
same,MABP 10 min,"Sprague-Dawley rats [4]; 1st study, 3 nmol/g",140.63 ± 7.64 mmHg
same,pCO2 10 min,"Sprague-Dawley rats [4]; 1st study, 3 nmol/g",40.25 ± 0.99 mmHg
same,pH 10 min,"Sprague-Dawley rats [4]; 1st study, 3 nmol/g",7.43 ± 0.01
same,pO2 10 min,"Sprague-Dawley rats [4]; 1st study, 3 nmol/g",136.00 ± 2.57 mmHg
same,MABP 70 min,"Sprague-Dawley rats [4]; 1st study, 3 nmol/g",102.13 ± 2.39 mmHg
same,pCO2 70 min,"Sprague-Dawley rats [4]; 1st study, 3 nmol/g",40.38 ± 0.84 mmHg
same,pH 70 min,"Sprague-Dawley rats [4]; 1st study, 3 nmol/g",7.40 ± 0.01
same,pO2 70 min,"Sprague-Dawley rats [4]; 1st study, 3 nmol/g",132.25 ± 4.65 mmHg
same,pH,"Sprague-Dawley rats [4]; 1st study, 3 nmol/g",7.44 ± 0.01
same,MABP,"Sprague-Dawley rats [4]; 1st study, 3 nmol/g",123.63 ± 6.27 mmHg
same,pCO2,"Sprague-Dawley rats [4]; 1st study, 3 nmol/g",39.75 ± 0.70 mmHg
same,pO2,"Sprague-Dawley rats [4]; 1st study, 3 nmol/g",130.63 ± 6.24 mmHg
same,MABP 10 min,"Sprague-Dawley rats [4]; 2nd study, 0.3 nmol/g",140.50 ± 4.69 mmHg
same,pCO2 10 min,"Sprague-Dawley rats [4]; 2nd study, 0.3 nmol/g",42.75 ± 0.59 mmHg
same,pH 10 min,"Sprague-Dawley rats [4]; 2nd study, 0.3 nmol/g",7.38 ± 0.01
same,pO2 10 min,"Sprague-Dawley rats [4]; 2nd study, 0.3 nmol/g",132.00 ± 4.92 mmHg
same,MABP 70 min,"Sprague-Dawley rats [4]; 2nd study, 0.3 nmol/g",129.25 ± 8.09 mmHg
same,pCO2 70 min,"Sprague-Dawley rats [4]; 2nd study, 0.3 nmol/g",41.75 ± 1.13 mmHg
same,pH 70 min,"Sprague-Dawley rats [4]; 2nd study, 0.3 nmol/g",7.41 ± 0.01
same,pO2 70 min,"Sprague-Dawley rats [4]; 2nd study, 0.3 nmol/g",121.00 ± 4.39 mmHg
same,pH,"Sprague-Dawley rats [4]; 2nd study, 0.3 nmol/g",7.38 ± 0.02
same,MABP,"Sprague-Dawley rats [4]; 2nd study, 0.3 nmol/g",119.00 ± 4.11 mmHg
same,pCO2,"Sprague-Dawley rats [4]; 2nd study, 0.3 nmol/g",39.25 ± 1.06 mmHg
same,pO2,"Sprague-Dawley rats [4]; 2nd study, 0.3 nmol/g",133.13 ± 5.15 mmHg
same,pCO2 10 min,"Sprague-Dawley rats [4]; 2nd study, 3 nmol/g",37.50 ± 0.80 mmHg
same,pH 10 min,"Sprague-Dawley rats [4]; 2nd study, 3 nmol/g",7.38 ± 0.02
same,pO2 10 min,"Sprague-Dawley rats [4]; 2nd study, 3 nmol/g",120.13 ± 6.53 mmHg
same,MABP 70 min,"Sprague-Dawley rats [4]; 2nd study, 3 nmol/g",130.25 ± 12.26 mmHg
same,pCO2 70 min,"Sprague-Dawley rats [4]; 2nd study, 3 nmol/g",40.88 ± 1.42 mmHg
same,pH 70 min,"Sprague-Dawley rats [4]; 2nd study, 3 nmol/g",7.39 ± 0.02
same,pO2 70 min,"Sprague-Dawley rats [4]; 2nd study, 3 nmol/g",124.63 ± 4.44 mmHg
same,pH,"Sprague-Dawley rats [4]; 2nd study, 3 nmol/g",7.41 ± 0.01
same,MABP,"Sprague-Dawley rats [4]; 2nd study, 3 nmol/g",124.13 ± 6.29 mmHg
same,pCO2,"Sprague-Dawley rats [4]; 2nd study, 3 nmol/g",38.63 ± 1.05 mmHg
same,pO2,"Sprague-Dawley rats [4]; 2nd study, 3 nmol/g",141.13 ± 10.44 mmHg
KLSSIETDV (PL protein motif) [NR2B9c(TDA)],binding to PSD-95,PSD-95,interacts with the PDZ2 domain of PSD-9S
